For the assay, the target named is T1, BRAF V600E (Homo sapiens, UniProt P15056+Q96SW2, V600E).
T1 construct: knock-in of the HiBiT tag to the endogenous BRAF V600E locus; host or cells: A375.10 (A375 clonal line, CRISPR HiBiT knock-in at the endogenous BRAF V600E locus)
The experiment in a line: BRAF V600E HiBiT Degradation Assay. It counts as cell-based. The gist of the method:
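Endogenous HiBiT knock-in on BRAF V600E in A375 cells (clone A375.10); 11-point half-log series, top 10 μM, 2, 6 or 24 h at 37° C. Lytic HiBiT luminescence, background-subtracted, normalized to DMSO; 4-parameter fit gives DC50, Emax (residual protein) and IP (inflection point).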

The mark [1] stands for this setting: A375.10 cells, BRAF V600E, 2 hours, inflection point, read-out: HiBiT-Degradation A375.10 BRAF 2 hours IP.
Setting [2] is: A375.10 cells, BRAF V600E, 2 hours, read-out: HiBiT-Degradation A375.10 BRAF 2 hours DC50.
Setting [3] is: A375.10 cells, BRAF V600E, 2 hours, residual protein remaining, read-out: HiBiT-Degradation A375.10 BRAF 2 hours Emax.
Setting [4] is: A375.10 cells, BRAF V600E, 6 hours, inflection point, read-out: HiBiT-Degradation A375.10 BRAF 6 hours IP.
[5] abbreviates: A375.10 cells, BRAF V600E, 6 hours, read-out: HiBiT-Degradation A375.10 BRAF 6 hours DC50.
[6] abbreviates: A375.10 cells, BRAF V600E, 6 hours, residual protein remaining, read-out: HiBiT-Degradation A375.10 BRAF 6 hours Emax.
The mark [7] stands for this setting: A375.10 cells, HiBiT, BRAF V600E, 24 hours, read-out: HiBiT-Degradation A375.10 BRAF 24 hours DC50.
Setting [8] is: A375.10 cells, HiBiT, BRAF V600E, 24 hours, read-out: HiBiT-Degradation A375.10 BRAF 24 hours Emax.
Setting [9] is: A375.10 cells, HiBiT, BRAF V600E, 24 hours, read-out: HiBiT-Degradation A375.10 BRAF 24 hours IP.
Where [10] appears, read: read-out: HiBiT-Degradation A375.10 BRAF 2 hours Emax, A375.10 cells, BRAF V600E, 2 hours, residual protein remaining.

Like-named read-outs stand apart in the source and are kept apart here.

T1 sequence (P15056 whole entry V600E): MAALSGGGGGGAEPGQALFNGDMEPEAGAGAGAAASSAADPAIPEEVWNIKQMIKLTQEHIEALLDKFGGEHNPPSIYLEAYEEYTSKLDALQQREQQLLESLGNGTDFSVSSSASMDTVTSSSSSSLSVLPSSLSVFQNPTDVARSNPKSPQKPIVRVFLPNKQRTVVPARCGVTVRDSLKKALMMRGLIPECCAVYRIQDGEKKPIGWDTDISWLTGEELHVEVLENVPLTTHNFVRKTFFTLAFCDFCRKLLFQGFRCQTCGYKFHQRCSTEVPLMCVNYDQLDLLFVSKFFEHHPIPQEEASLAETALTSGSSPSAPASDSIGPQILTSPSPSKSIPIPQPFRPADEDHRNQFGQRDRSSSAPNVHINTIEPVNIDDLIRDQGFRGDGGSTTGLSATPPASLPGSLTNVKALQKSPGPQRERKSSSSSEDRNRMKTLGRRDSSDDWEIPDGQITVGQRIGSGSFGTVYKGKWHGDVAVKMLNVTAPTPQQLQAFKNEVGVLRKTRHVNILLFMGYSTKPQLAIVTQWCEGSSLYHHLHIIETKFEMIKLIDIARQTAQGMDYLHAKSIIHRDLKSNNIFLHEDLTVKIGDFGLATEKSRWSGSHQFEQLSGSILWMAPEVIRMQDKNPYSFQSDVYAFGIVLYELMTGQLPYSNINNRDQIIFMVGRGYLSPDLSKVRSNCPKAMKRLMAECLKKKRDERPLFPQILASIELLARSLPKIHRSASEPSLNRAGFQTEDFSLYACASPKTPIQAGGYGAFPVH
T1 sequence (Q96SW2 whole entry): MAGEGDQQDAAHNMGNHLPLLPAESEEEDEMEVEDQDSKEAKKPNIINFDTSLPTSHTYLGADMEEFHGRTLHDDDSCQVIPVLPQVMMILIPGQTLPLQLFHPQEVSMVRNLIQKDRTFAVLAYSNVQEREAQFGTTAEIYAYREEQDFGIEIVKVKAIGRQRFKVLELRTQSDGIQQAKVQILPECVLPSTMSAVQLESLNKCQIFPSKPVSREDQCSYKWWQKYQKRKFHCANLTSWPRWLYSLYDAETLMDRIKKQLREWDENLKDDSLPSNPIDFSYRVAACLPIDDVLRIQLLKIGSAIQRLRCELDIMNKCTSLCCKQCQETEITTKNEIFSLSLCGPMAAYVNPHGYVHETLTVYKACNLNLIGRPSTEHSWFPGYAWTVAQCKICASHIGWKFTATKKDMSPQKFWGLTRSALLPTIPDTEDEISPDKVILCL
T1 sequence (Q16531 whole entry partner): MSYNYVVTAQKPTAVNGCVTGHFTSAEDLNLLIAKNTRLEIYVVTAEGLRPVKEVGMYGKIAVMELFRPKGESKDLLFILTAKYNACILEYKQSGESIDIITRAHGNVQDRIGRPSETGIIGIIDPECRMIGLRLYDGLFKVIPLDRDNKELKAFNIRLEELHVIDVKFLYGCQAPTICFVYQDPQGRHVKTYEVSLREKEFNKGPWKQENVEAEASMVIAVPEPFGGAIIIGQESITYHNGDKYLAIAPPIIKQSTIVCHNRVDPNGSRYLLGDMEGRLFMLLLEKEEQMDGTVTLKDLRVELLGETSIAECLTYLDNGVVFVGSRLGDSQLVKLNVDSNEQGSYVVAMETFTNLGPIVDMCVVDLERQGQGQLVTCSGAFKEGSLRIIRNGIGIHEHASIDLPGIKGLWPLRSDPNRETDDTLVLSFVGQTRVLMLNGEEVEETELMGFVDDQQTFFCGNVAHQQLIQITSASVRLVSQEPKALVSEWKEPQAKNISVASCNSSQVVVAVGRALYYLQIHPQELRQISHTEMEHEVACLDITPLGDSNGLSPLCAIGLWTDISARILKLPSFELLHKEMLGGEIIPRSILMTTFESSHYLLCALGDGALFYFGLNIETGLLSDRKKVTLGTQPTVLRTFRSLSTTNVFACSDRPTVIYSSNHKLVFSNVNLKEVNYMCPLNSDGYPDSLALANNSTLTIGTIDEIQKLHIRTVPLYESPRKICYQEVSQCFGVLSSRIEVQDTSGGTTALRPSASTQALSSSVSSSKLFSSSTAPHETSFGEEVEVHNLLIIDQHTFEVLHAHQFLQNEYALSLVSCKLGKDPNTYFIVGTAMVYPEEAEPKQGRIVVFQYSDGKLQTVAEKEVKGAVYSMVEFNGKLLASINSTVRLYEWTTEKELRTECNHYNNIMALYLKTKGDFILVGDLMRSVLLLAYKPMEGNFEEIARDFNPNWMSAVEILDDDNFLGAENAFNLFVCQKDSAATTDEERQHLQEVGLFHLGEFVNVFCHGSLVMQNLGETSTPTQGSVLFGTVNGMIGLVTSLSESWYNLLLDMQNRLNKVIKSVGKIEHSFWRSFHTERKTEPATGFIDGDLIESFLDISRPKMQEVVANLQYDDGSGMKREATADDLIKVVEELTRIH

For orientation: Emax means the maximal effect, on the per cent scale that the assay sets. Take `CN(CCO)S(=O)(=O)Nc1ccc(F)c(Oc2ccc3ncn(C4CC5(CCN(C6CCC(c7ccc(NC8CCC(=O)NC8=O)cc7F)CC6)CC5)C4)c(=O)c3c2)c1C#N` (single isomer, unassigned) [Compound 79, 6-[2-cyano-6-fluoro-3-[[2-hydroxyethyl(methyl)sulfamoyl]amino]phenoxy]-3-[7-[4-[4-[(2,6-dioxo-3-piperidyl)amino]-2-fluoro-phenyl]cyclohexyl]-7-azaspiro[3.5]nonan-2-yl]-4-oxo-quinazoline]: the DC50 reads like this: under setting [1], less than 1000 nM; under setting [2], less than 1000 nM; under setting [4], less than 1000 nM; under setting [5], less than 1000 nM; under setting [7], less than 1000 nM; under setting [9], less than 1000 nM. Also, the Emax under setting [3] was less than 50%, the Emax under setting [6] is less than 50% and the Emax under setting [8] is less than 50%.
As to `CCN(C)S(=O)(=O)Nc1ccc(F)c(Nc2ccc3ncn([C@H]4COC5(CCN(C6CCC(c7cc8c(cc7F)c(N7CCC(=O)NC7=O)nn8C)CC6)CC5)C4)c(=O)c3c2)c1C#N` (single isomer, unassigned) [Compound 64], the DC50 runs as follows: under setting [1], less than 1000 nM; under setting [2], less than 1000 nM; under setting [4], less than 1000 nM; under setting [5], less than 1000 nM; under setting [7], less than 1000 nM; under setting [9], less than 1000 nM. The Emax reads like this: under setting [3], less than 50%; under setting [6], less than 50%; under setting [8], less than 50%.
Regarding `CCN(C)S(=O)(=O)Nc1ccc(F)c(Oc2ccc3ncn([C@H]4COC5(CCN(C6CCC(c7cc8c(cc7F)c(N7CCC(=O)NC7=O)nn8C)CC6O)CC5)C4)c(=O)c3c2)c1C#N` (single isomer, unassigned) [Compound 43], the DC50 by setting is: under setting [1], less than 1000 nM; under setting [2], less than 1000 nM; under setting [4], less than 1000 nM; under setting [5], less than 1000 nM; under setting [7], less than 1000 nM; under setting [9], less than 1000 nM. Moreover, the Emax reads like this: under setting [3], 50 to 90%; under setting [6], less than 50%; under setting [8], less than 50%.
With `CCN(C)S(=O)(=O)Nc1ccc(F)c(Oc2ccc3ncn([C@H]4COC5(CCN(C6CCC(c7ccc(N[C@@H]8CCC(=O)NC8=O)cc7F)CC6)CC5)C4)c(=O)c3c2)c1C#N` (single isomer, unassigned) [Compound 4], the DC50 is less than 1000 nM under setting [1]; less than 1000 nM under setting [2]; less than 1000 nM under setting [4]; less than 1000 nM under setting [5]; less than 1000 nM under setting [7]; less than 1000 nM under setting [9]. The Emax under setting [3] is less than 50%, the maximum response (Emax) under setting [6] is less than 50% and the maximal effect (Emax) under setting [8] is less than 50%.
For the compound `CN(CCO)S(=O)(=O)Nc1ccc(F)c(Oc2ccc3ncn([C@H]4COC5(CCN(C6CCC(c7ccc(NC8CCC(=O)NC8=O)cc7F)CC6)CC5)C4)c(=O)c3c2)c1C#N` (single isomer, unassigned) [Compound 76], the DC50 by setting is: under setting [1], less than 1000 nM; under setting [2], less than 1000 nM; under setting [4], less than 1000 nM; under setting [5], less than 1000 nM; under setting [7], less than 1000 nM; under setting [9], less than 1000 nM. Besides, the Emax is less than 50% under setting [3], less than 50% under setting [6] and less than 50% under setting [8].
`CO[C@H]1CCN(S(=O)(=O)Nc2ccc(F)c(Oc3ccc4ncn(C5CC6(CCN(C7CCC(c8cc9c(cc8F)c(N8CCC(=O)NC8=O)nn9C)CC7)CC6)C5)c(=O)c4c3)c2C#N)C1` (single isomer, unassigned) [Compound 103]: the DC50 is, setting by setting: under setting [1], less than 1000 nM; under setting [2], less than 1000 nM; under setting [4], less than 1000 nM; under setting [5], less than 1000 nM; under setting [7], less than 1000 nM; under setting [9], less than 1000 nM. The Emax is less than 50% under setting [3], less than 50% under setting [6] and less than 50% under setting [8].
As to `CO[C@@H]1CCN(S(=O)(=O)Nc2ccc(F)c(Oc3ccc4ncn(C5CC6(CCN(C7CCC(c8cc9c(cc8F)c(N8CCC(=O)NC8=O)nn9C)CC7)CC6)C5)c(=O)c4c3)c2C#N)C1` (single isomer, unassigned) [Compound 101], the DC50 by setting is: under setting [1], less than 1000 nM; under setting [2], less than 1000 nM; under setting [4], less than 1000 nM; under setting [5], less than 1000 nM; under setting [7], less than 1000 nM; under setting [9], less than 1000 nM. Also, the Emax under setting [3] was less than 50%, the Emax under setting [6] was less than 50% and the Emax under setting [8] is less than 50%.
With `COC1CN(S(=O)(=O)Nc2ccc(F)c(Oc3ccc4ncn([C@H]5COC6(CCN(C7CC8(C7)CN(c7cc9c(cc7F)c(N7CCC(=O)NC7=O)nn9C)C8)CC6)C5)c(=O)c4c3)c2C#N)C1` [Compound 246, N-[2-cyano-3-[3-[(3R)-8-[2-[3-(2,4-dioxohexahydropyrimidin-1-yl)-5-fluoro-1-methyl-indazol-6-yl]-2-azaspiro[3.3]heptan-6-yl]-1-oxa-8-azaspiro[4.5]decan-3-yl]-4-oxo-quinazolin-6-yl]oxy-4-fluoro-phenyl]-3-methoxy-azetidine-1-sulfonamide], the DC50 (read-out: HiBiT-Degradation A375.10 BRAF 2 hours DC50, A375.10 cells, BRAF V600E, 2 hours) lay within 1000 to 10000 nM and the DC50 (read-out: HiBiT-Degradation A375.10 BRAF 2 hours IP, A375.10 cells, BRAF V600E, 2 hours, inflection point) is less than 1000 nM. Also, the maximum response (Emax) under setting [10] lay within 50 to 90%.
Consider `CO[C@@H]1CCN(S(=O)(=O)Nc2ccc(F)c(Oc3ccc4ncn([C@H]5COC6(CCN(C7CCC(c8cc9c(cc8F)c(N8CCC(=O)NC8=O)nn9C)CC7)CC6)C5)c(=O)c4c3)c2C#N)C1` (single isomer, unassigned) [Compound 100], for which the DC50 by setting is: under setting [1], less than 1000 nM; under setting [2], less than 1000 nM; under setting [4], less than 1000 nM; under setting [5], less than 1000 nM; under setting [7], less than 1000 nM; under setting [9], less than 1000 nM. The Emax reads like this: under setting [3], less than 50%; under setting [6], less than 50%; under setting [8], less than 50%.
For the compound `CCN(C)S(=O)(=O)Nc1ccc(F)c(Oc2ccc3ncn([C@H]4CCC5(CCN(C6CCC(c7cc8c(cc7F)c(N7CCC(=O)NC7=O)nn8C)CC6)CC5)C4)c(=O)c3c2)c1C#N` (single isomer, unassigned) [Compound 33], the DC50 under setting [1] is less than 1000 nM; the DC50 under setting [2] was less than 1000 nM; the DC50 under setting [4] was less than 1000 nM; the DC50 under setting [5] was less than 1000 nM; the DC50 under setting [7] is less than 1000 nM; the DC50 under setting [9] was less than 1000 nM. For the same compound, the Emax is less than 50% under setting [6], less than 50% under setting [8] and less than 50% under setting [10].
Turning to `CCN(C)S(=O)(=O)Nc1ccc(F)c(Nc2ccc3ncn([C@H]4COC5(CCN(C6CCC(c7cc8c(cc7F)c(N7CCC(=O)NC7=O)nn8C)CC6)CC5)C4)c(=O)c3c2F)c1C#N` (single isomer, unassigned) [Compound 67], the DC50 reads like this: under setting [1], less than 1000 nM; under setting [2], less than 1000 nM; under setting [4], less than 1000 nM; under setting [5], less than 1000 nM; under setting [7], less than 1000 nM; under setting [9], less than 1000 nM. Besides, the Emax by setting is: under setting [3], less than 50%; under setting [6], less than 50%; under setting [8], less than 50%.
In the case of `CCN(C)S(=O)(=O)Nc1ccc(F)c(Oc2ccc3ncn(C4CC5(CCN(C6CCC(c7ccc(NC8CCC(=O)NC8=O)cc7F)CC6)CC5)C4)c(=O)c3c2)c1C#N` (single isomer, unassigned) [Compound 6, 6-[2-cyano-3-[[ethyl(methyl)sulfamoyl]amino]-6-fluoro-phenoxy]-3-[7-[4-[4-[(2,6-dioxo-3-piperidyl)amino]-2-fluoro-phenyl]cyclohexyl]-7-azaspiro[3.5]nonan-2-yl]-4-oxo-quinazoline], the DC50 runs as follows: under setting [1], less than 1000 nM; under setting [2], less than 1000 nM; under setting [4], less than 1000 nM; under setting [5], less than 1000 nM; under setting [7], less than 1000 nM; under setting [9], less than 1000 nM. Further, the Emax was less than 50% under setting [3], less than 50% under setting [6] and less than 50% under setting [8].
For `CCN(C)S(=O)(=O)Nc1ccc(F)c(Oc2ccc3ncn(C4CC5(CCN(C6CCC(c7cc8c(cc7F)c(N7CCC(=O)NC7=O)nn8C)CC6)CC5)C4)c(=O)c3c2)c1F` (single isomer, unassigned) [Compound 178, 3-[7-[4-[3-(2,4-dioxohexahydropyrimidin-1-yl)-5-fluoro-1-methyl-indazol-6-yl]cyclohexyl]-7-azaspiro[3.5]nonan-2-yl]-6-[3-[[ethyl(methyl)sulfamoyl]amino]-2,6-difluoro-phenoxy]-4-oxo-quinazoline], the DC50 is less than 1000 nM under setting [1]; less than 1000 nM under setting [2]; less than 1000 nM under setting [4]; less than 1000 nM under setting [5]; less than 1000 nM under setting [7]; less than 1000 nM under setting [9]. Also, the Emax is, setting by setting: under setting [3], less than 50%; under setting [6], less than 50%; under setting [8], less than 50%.

The values above are taken from patent US20260297060A1, “COMPOUNDS FOR THE DEGRADATION OF MUTANT BRAF” (C4 THERAPEUTICS, INC., priority 2023, published 2026).
